According to paper PMC6468028 (Protein & Cell, 2018):

Key:
[1] = target: T1, L-fucokinase/GDP-fucose pyrophosphorylase (FKP); BfFKP (Bacteroides fragilis, UniProt Q58T34); experiment: NADH coupled assay of fucokinase activity; type: biochemical; conditions: co-substrate ATP; C-terminal fucokinase domain
T1 construct: full-length wild type, overexpressed and purified; about 105 kDa protomer, tetramer; model covers residues 71-398 and 467-949

[2] = target: the molecule itself; experiment: SEC; purified FKP on size exclusion chromatography; eluted at the volume of the 440 kDa molecular weight marker

For `C[C@@H]1OC(O)[C@@H](O)[C@H](O)[C@@H]1O` (stereo partly drawn) [L-fucose, 6-deoxy-L-galactose], the “NADH coupled assay of fucokinase activity” value [1] was “We applied the NADH coupled assay and the pyrophosphate assay to characterize the fucokinase activity”.

B1: L-fucokinase/GDP-fucose pyrophosphorylase (FKP) from Bacteroides fragilis 9343, full-length wild type (enzyme, UniProt Q58T34 1-949, looked up)
chain: MQKLLSLPSNLVQSFHELERVNRTDWFCTSDPVGKKLGSGGGTSWLLEECYNEYSDGATFGEWLEKEKRILLHAGGQSRRLPGYAPSGKILTPVPVFRWERGQHLGQNLLSLQLPLYEKIMSLAPDKLHTLIASGDVYIRSEKPLQSIPEADVVCYGLWVDPSLATHHGVFASDRKHPEQLDFMLQKPSLAELESLSKTHLFLMDIGIWLLSDRAVEILMKRSHKESSEELKYYDLYSDFGLALGTHPRIEDEEVNTLSVAILPLPGGEFYHYGTSKELISSTLSVQNKVYDQRRIMHRKVKPNPAMFVQNAVVRIPLCAENADLWIENSHIGPKWKIASRHIITGVPENDWSLAVPAGVCVDVVPMGDKGFVARPYGLDDVFKGDLRDSKTTLTGIPFGEWMSKRGLSYTDLKGRTDDLQAVSVFPMVNSVEELGLVLRWMLSEPELEEGKNIWLRSEHFSADEISAGANLKRLYAQREEFRKGNWKALAVNHEKSVFYQLDLADAAEDFVRLGLDMPELLPEDALQMSRIHNRMLRARILKLDGKDYRPEEQAAFDLLRDGLLDGISNRKSTPKLDVYSDQIVWGRSPVRIDMAGGWTDTPPYSLYSGGNVVNLAIELNGQPPLQVYVKPCKDFHIVLRSIDMGAMEIVSTFDELQDYKKIGSPFSIPKAALSLAGFAPAFSAVSYASLEEQLKDFGAGIEVTLLAAIPAGSGLGTSSILASTVLGAINDFCGLAWDKNEICQRTLVLEQLLTTGGGWQDQYGGVLQGVKLLQTEAGFAQSPLVRWLPDHLFTHPEYKDCHLLYYTGITRTAKGILAEIVSSMFLNSSLHLNLLSEMKAHALDMNEAIQRGSFVEFGRLVGKTWEQNKALDSGTNPPAVEAIIDLIKDYTLGYKLPGAGGGGYLYMVAKDPQAAVRIRKILTENAPNPRARFVEMTLSDKGFQVSRS
With B1 the “stoichiometry N” value [2] was 4.
